Results: US20100075935A1, “XANTHINE MODULATORS OF ADENOSINE A1 RECEPTOR” (Auspex Pharmaceuticals, Inc., priority 2008, published 2010)
Values belong to the molecule of their own block, whether it stands above or below them.

Assays:
[1] = In vitro liver microsomal stability assay; assay type: in vitro ADME; conditions: human liver microsomes 0.5 mg/mL, 1 μM compound, 37° C., NADPH-generating system, compared with non isotopically enriched rolofylline, '+' marks one bin of −25%-0%, 0%-50%, 50%-150%
Procedure: Liver microsomal stability assays were conducted at 0.5 mg per mL liver microsome protein with an NADPH-generating system in 2% NaHCO3 (2.2 mM NADPH, 25.6 mM glucose 6-phosphate, 6 units per mL glucose 6-phosphate dehydrogenase and 3.3 mM MgCl2). Test compounds were prepared as solutions in 20% acetonitrile-water and added to the assay mixture (final assay concentration 1 μM) and incubated at 37° C. Final concentration of acetonitrile in the assay should be <1%. […] were taken out at times 0, 7.5, 15, 22.5, 30 minutes, and diluted with ice cold acetonitrile (200 μL) to stop the reactions. Samples were centrifuged at 12,000 RPM for 10 min to precipitate proteins. Supernatants were transferred to micro centrifuge tubes and stored for LC/MS/MS analysis of the degradation half-life of the test compounds. […] The degradation half-lives of Examples 1 through 4 (isotopically enriched compounds) as compared with non isotopically enriched rolofylline are shown in Table 1.

[2] = test system: acute heart failure patients; conditions: cited from earlier work
[3] = rolofylline 30 mg daily for 3 days

% increase of HLM degradation half-life [1]: + (−25%-0%)
SMILES: [2H]C([2H])([2H])C([2H])([2H])C([2H])([2H])n1c(=O)n(CCC)c(=O)c2[nH]c(C34CC5CC(CC3C5)C4)nc21 [Example 1, 8-(Noradamantyl)-1-propyl-3-(d7-propyl)-3,7-dihydro-purine-2,6-dione]

% increase of HLM degradation half-life [1]: + (−25%-0%)
SMILES: [2H]C([2H])([2H])C([2H])([2H])C([2H])([2H])n1c(=O)c2[nH]c(C34CC5CC(CC3C5)C4)nc2n(CCC)c1=O [Example 4, 8-(Noradamantyl)-1-(d7-propyl)-3-propyl-3,7-dihydro-purine-2,6-dione]

% increase of HLM degradation half-life [1]: + (−25%-0%)
SMILES: [2H]C([2H])(CC)n1c(=O)c2[nH]c(C34CC5CC(CC3C5)C4)nc2n(CCC)c1=O [Example 3, 8-(Noradamantyl)-1-(1,1-d2-propyl)-3-propyl-3,7-dihydro-purine-2,6-dione]

SMILES: CCCn1c(=O)c2[nH]c(C34CC5CC(CC3C5)C4)nc2n(CCC)c1=O [Rolofylline, 8-(hexahydro-2,5-methano-pentalen-3a-yl)-1,3-dipropyl-3,7-dihydro-purine-2,6-dione]
urine output at 6 hours ([2]; acute heart failure patients, 6 hours): increased urine output at 6 hours
overall urine output over 24 hours ([2]; acute heart failure patients, 24 hours): did not increase overall urine output over 24 hours
patients with persistent renal impairment ([2]; rolofylline 30 mg daily for 3 days, acute heart failure patients): 8%
dyspnea improvement versus placebo [2, 3]: superior to placebo
instances of death, heart failure readmission, worsening heart failure or persistent renal impairment versus placebo [2, 3]: less instances

% increase of HLM degradation half-life [1]: + (−25%-0%)
SMILES: [2H]C([2H])([2H])C([2H])([2H])C([2H])([2H])n1c(=O)c2[nH]c(C34CC5CC(CC3C5)C4)nc2n(C([2H])([2H])C([2H])([2H])C([2H])([2H])[2H])c1=O [Example 2, 8-(Noradamantyl)-1-(d7-propyl)-3-(d7-propyl)-3,7-dihydro-purine-2,6-dione]
